This note sets out measurements from ChEMBL document CHEMBL3272027, “Chemoimmunotherapy of cancer” (1977).

Format in all cases: functional
Assay [1] concerns P388. The assay can be described thus: In vivo antitumor activity against mouse P388 cells in 3PS31 test system at 12.5 mg/kg administered on day 1, 5 and 9 relative to control.
Assay [2] deals with P388. Kind of assay: In vivo antitumor activity against mouse P388 cells in 3PS31 test system at 25 mg/kg administered on day 1, 5 and 9 relative to control.
Assay [3] has as its system P388. Kind of assay: In vivo antitumor activity against mouse P388 cells in 3PS31 test system at 50 mg/kg administered on day 1, 5 and 9 relative to control.
Assay [4] concerns P388. The assay can be described thus: In vivo antitumor activity against mouse P388 cells in 3PS31 test system at 75 mg/kg administered on day 1, 5 and 9 relative to control.
The subject of assay [5] is P388. Kind of assay: In vivo antitumor activity against mouse P388 cells in 3PS31 test system at 6.25 mg/kg administered on day 1, 5 and 9 relative to control.

For the compound `O=C(O)c1cc([N+](=O)[O-])cc([N+](=O)[O-])c1NCCSCCCl`, the T/C in assay [1] is 102%; in assay [2], 111%; in assay [3], 106%.
Turning to `O=[N+]([O-])c1cc([N+](=O)[O-])c(NCCSCCCl)c(S(=O)(=O)O)c1`, the T/C is on record as 111% in assay [1], 124% in assay [2], 118% in assay [4] and 124% in assay [3].
Turning to `O=[N+]([O-])c1cc([N+](=O)[O-])c(NCCCSCCCl)c(S(=O)(=O)O)c1`, the T/C in assay [1] amounted to 132%; in assay [2], 136%; in assay [5], 111%; in assay [3], 128%.
